Data from the supplement of paper PMC10733146.

Columns and labels:
Experiment in all cases: viability relative to DMSO control (fraction); higher = less drug effect (more viable cells)
Details in all cases: 48 h
[1] = system: primary ALL patient cells (S048)
Summary of the method: (§1)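 Viability was quantified by CellTiter-Glo luminescence and related to the median of 16 inner DMSO wells. Before that, primary mononuclear tumour cells, fresh or cryopreserved and Ficoll-isolated from blood or bone marrow or prepared from processed lymph node, were plated at 4 × 10^4 cells per well in 384-well plates containing pre-plated compounds at five concentrations, one well each. Plates were incubated in RPMI-1640 with penicillin/streptomycin, L-glutamine and human serum at 37 °C and 5% CO2 for 48 h.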

[2] = system: primary ALL patient cells (S088)
Summary of the method: as §1

[3] = system: primary AML patient cells (S009)
Summary of the method: as §1

[4] = system: primary AML patient cells (S055)
Summary of the method: as §1

[5] = system: primary AML patient cells (S056)
Summary of the method: as §1

[6] = system: primary AML patient cells (S060)
Summary of the method: as §1

[7] = system: primary AML patient cells (S071)
Summary of the method: as §1

[8] = system: primary AML patient cells (S072)
Summary of the method: as §1

[9] = system: primary AML patient cells (S079)
Summary of the method: as §1

[10] = system: primary B-PLL patient cells (S016)
Summary of the method: as §1

[11] = system: primary BL patient cells (S005)
Summary of the method: as §1

[12] = system: primary CLL patient cells (S031)
Summary of the method: as §1

[13] = system: primary DLBCL patient cells (S082)
Summary of the method: as §1

[14] = system: primary FL patient cells (S022)
Summary of the method: as §1

[15] = system: primary FL patient cells (S087)
Summary of the method: as §1

[16] = system: primary MCL patient cells (S041)
Summary of the method: as §1

[17] = system: primary MCL patient cells (S053)
Summary of the method: as §1

[18] = system: primary MCL patient cells (S063)
Summary of the method: as §1

[19] = system: primary MCL patient cells (S068)
Summary of the method: as §1

[20] = system: primary T-PLL patient cells (S008)
Summary of the method: as §1

Nc1ncn([C@H]2C[C@H](O)[C@@H](CO)O2)c(=O)n1 [Decitabine (Dacogen)]
viability ([1]; 0.024 µM): 0.967 | viability ([1]; 0.12 µM): 0.89 | viability ([1]; 0.6 µM): 0.938 | viability ([1]; 3 µM): 0.843 | viability ([1]; 15 µM): 0.82 | viability ([2]; 0.024 µM): 0.978 | viability ([2]; 0.12 µM): 0.886 | viability ([2]; 0.6 µM): 0.982 | viability ([2]; 3 µM): 0.778 | viability ([2]; 15 µM): 0.799 | viability ([3]; 0.024 µM): 0.915 | viability ([3]; 0.12 µM): 0.951 | viability ([3]; 0.6 µM): 0.854 | viability ([3]; 3 µM): 0.859 | viability ([3]; 15 µM): 0.702 | viability ([4]; 0.024 µM): 1.05 | viability ([4]; 0.12 µM): 0.939 | viability ([4]; 0.6 µM): 1.03 | viability ([4]; 3 µM): 0.972 | viability ([4]; 15 µM): 1.02 | viability ([5]; 0.024 µM): 0.971 | viability ([5]; 0.12 µM): 0.876 | viability ([5]; 0.6 µM): 0.912 | viability ([5]; 3 µM): 0.8 | viability ([5]; 15 µM): 0.766 | viability ([6]; 0.024 µM): 1.01 | viability ([6]; 0.12 µM): 0.975 | viability ([6]; 0.6 µM): 1.02 | viability ([6]; 3 µM): 0.99 | viability ([6]; 15 µM): 1.01 | viability ([7]; 0.024 µM): 0.995 | viability ([7]; 0.12 µM): 0.948 | viability ([7]; 0.6 µM): 0.934 | viability ([7]; 3 µM): 0.792 | viability ([7]; 15 µM): 0.756 | viability ([8]; 0.024 µM): 1.02 | viability ([8]; 0.12 µM): 0.93 | viability ([8]; 0.6 µM): 0.964 | viability ([8]; 3 µM): 0.83 | viability ([8]; 15 µM): 0.811 | viability ([9]; 0.024 µM): 1.02 | viability ([9]; 0.12 µM): 0.953 | viability ([9]; 0.6 µM): 0.989 | viability ([9]; 3 µM): 0.889 | viability ([9]; 15 µM): 0.814 | viability ([10]; 0.024 µM): 0.927 | viability ([10]; 0.12 µM): 0.83 | viability ([10]; 0.6 µM): 0.972 | viability ([10]; 3 µM): 0.874 | viability ([10]; 15 µM): 0.88 | viability ([11]; 0.024 µM): 0.833 | viability ([11]; 0.12 µM): 1.27 | viability ([11]; 0.6 µM): 0.828 | viability ([11]; 3 µM): 1.27 | viability ([11]; 15 µM): 0.8 | viability ([12]; 0.024 µM): 1.02 | viability ([12]; 0.12 µM): 0.916 | viability ([12]; 0.6 µM): 1.04 | viability ([12]; 3 µM): 0.869 | viability ([12]; 15 µM): 0.965 | viability ([13]; 0.024 µM): 0.993 | viability ([13]; 0.12 µM): 0.936 | viability ([13]; 0.6 µM): 0.973 | viability ([13]; 3 µM): 0.908 | viability ([13]; 15 µM): 0.967 | viability ([14]; 0.024 µM): 1.12 | viability ([14]; 0.12 µM): 0.952 | viability ([14]; 0.6 µM): 1.01 | viability ([14]; 3 µM): 0.937 | viability ([14]; 15 µM): 0.962 | viability ([15]; 0.024 µM): 0.969 | viability ([15]; 0.12 µM): 0.89 | viability ([15]; 0.6 µM): 0.981 | viability ([15]; 3 µM): 0.864 | viability ([15]; 15 µM): 0.966 | viability ([16]; 0.024 µM): 1.06 | viability ([16]; 0.12 µM): 0.969 | viability ([16]; 0.6 µM): 1.06 | viability ([16]; 3 µM): 0.961 | viability ([16]; 15 µM): 0.984 | viability ([17]; 0.024 µM): 0.969 | viability ([17]; 0.12 µM): 0.824 | viability ([17]; 0.6 µM): 0.878 | viability ([17]; 3 µM): 0.807 | viability ([17]; 15 µM): 0.735 | viability ([18]; 0.024 µM): 1.03 | viability ([18]; 0.12 µM): 0.985 | viability ([18]; 0.6 µM): 1.03 | viability ([18]; 3 µM): 0.974 | viability ([18]; 15 µM): 0.977 | viability ([19]; 0.024 µM): 0.948 | viability ([19]; 0.12 µM): 0.974 | viability ([19]; 0.6 µM): 0.926 | viability ([19]; 3 µM): 0.938 | viability ([19]; 15 µM): 0.775 | viability ([20]; 0.024 µM): 0.968 | viability ([20]; 0.12 µM): 1.02 | viability ([20]; 0.6 µM): 0.953 | viability ([20]; 3 µM): 1.08 | viability ([20]; 15 µM): 1.01
